In publication PMC10096648, “A conserved hymenopteran-specific family of cytochrome P450s protects bee pollinators from toxic nectar alkaloids” (Science Advances, 2023):

B1: CYP336A1 (Apis mellifera) (protein)
chain: MASAFLTLVTGALLLLCFYLYLKYTYWKRNGIPYSKGYYPIIGHFLPLIMKKQSYSEIIEEIYRDSNHSMVGMYKGMKPVLILRDINLIKTVLQSNFSKFHENAVKIDPKLDPLLAKNPFFCYGELWQTGRKRLTYAFSNARLKILFAAVYEVCTKFRNFLDRRLESSKKYEVELKSLFLKFTSEVVANAGLGIEGFCFEDDKVQSMFTNLDNNDFLDTFLIGIIVHFPFLTKLLRIQFLPTKHDKFFRTVVKKNLELRKSDPIPRNDFIQLMIEMEQTGEKIDEEIVAAHAVSFYLDGVETSSVTLNFIGCQLAIHQDVQEKLRKEVRSTLEKHGGVLTFEALKDMTYMNQVISESQRYFSALGFLGKICTDEFELQGSDGLNYRAKPGTELLIPICGLHKDPKYWDNPEIFDPERFSDENKQRIEKMAFIPFGEGPRICVGMRMAMLQMKSCLATLMKDYKLEVSPKMQLPLKLSPTYFLSAPLGGGWVLISKA
notes: codon-optimised; microsomes of baculovirus-infected High Five insect cells, coexpressed with A. mellifera NADPH-cytochrome P450 reductase

How the values were obtained:
[1] = biological target: T1, CYP336A1 (Apis mellifera, UniProt A0A8U0WT43, D298G); experiment: fluorogenic model substrate assay, recombinant microsomes; type: biochemical; settings: NADPH; activity present only in the mutant
T1 construct: gene LOC724211; codon-optimised; microsomes of baculovirus-infected High Five insect cells, coexpressed with A. mellifera NADPH-cytochrome P450 reductase
T1 sequence (A0A8U0WT43 entry or part of it D298G): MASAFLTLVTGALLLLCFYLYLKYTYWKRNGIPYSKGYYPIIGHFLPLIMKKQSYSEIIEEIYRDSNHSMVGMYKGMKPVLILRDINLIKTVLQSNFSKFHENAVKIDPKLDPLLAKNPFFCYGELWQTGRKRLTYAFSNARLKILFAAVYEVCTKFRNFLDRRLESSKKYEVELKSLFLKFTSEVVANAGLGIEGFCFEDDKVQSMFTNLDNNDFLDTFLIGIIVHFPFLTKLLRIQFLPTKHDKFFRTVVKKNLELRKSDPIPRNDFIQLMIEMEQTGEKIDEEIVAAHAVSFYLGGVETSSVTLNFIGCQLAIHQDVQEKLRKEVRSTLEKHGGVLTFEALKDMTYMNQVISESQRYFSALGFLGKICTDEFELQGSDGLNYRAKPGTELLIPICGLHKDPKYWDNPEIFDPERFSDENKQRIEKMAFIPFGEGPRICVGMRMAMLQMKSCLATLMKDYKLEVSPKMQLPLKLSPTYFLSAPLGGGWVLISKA

[2] = substrate: CN1CCC[C@H]1c1cccnc1; experiment: nicotine depletion by UPLC-MS/MS, recombinant microsomes; type: biochemical, Apis mellifera; settings: NADPH regeneration system, pH 7.6, 30°C, 30 min, 0.78-100 μM nicotine

Row | Molecule | fluorogenic model substrate assay, recombinant microsomes [1] | Km [2]
1 | O=c1cc(C(F)(F)F)c2ccc(OCc3ccccc3)cc2o1 [BFC, 7-benzyloxy-4-(trifluoromethyl)coumarin] | the D298G substitution leads to significant activity toward BFC | –
2 | B1 | – | 12.77 µM
